The values below come from ChEMBL document CHEMBL4477173, “Additional Insights into the Obtusallene Family: Components of Laurencia marilzae” (2016).

Bounds are passed on as bounds.

The assay deals with HepG2. In words: Induction of apoptosis in human HepG2 cells assessed as apoptotic cells at 50 uM by Annexin V-FITC/propidium iodide staining based flow cytometry relative to control. The format is functional.
As for `C[C@H]1/C=C/C[C@H](Br)[C@@H]2C[C@@H](Cl)[C@@H](C[C@H](C=C=CBr)O1)O2`, the Activity is recorded as 47%.

Take `C[C@@H]1O[C@@H](C=C=CBr)C[C@H]2O[C@@H](C[C@H]2Cl)[C@@H](Br)C[C@H]2O[C@H]12`: the Activity is recorded as greater than 65%.

For the compound `C[C@@H]1O[C@@H](C=C=CBr)C[C@H]2O[C@@H](C[C@H]2Cl)[C@@H](Br)C[C@@H]2O[C@@H]12`, the Activity was greater than 70%.
